What was measured:
[1] = In vivo bone labeling and histomorphometry; set-up: species or system mice; conditions: normal, uninjected animals
Method: To label bones, mice were intraperitoneally injected with 20 mg/kg of calcein (Sigma-Aldrich, St. Louis, Mo.) or 30 mg/kg of Alizarin Complexone (Sigma-Aldrich, St. Louis, Mo.) in a 2% sodium bicarbonate solution. Mice 6 to 8 months of age were labeled 8 days and 2 days prior to euthanasia, respectively. Tibia were fixed in 70% ethanol, embedded in methylmethacrylate and sectioned. Bone histomorphometry on H and E sections and bone labeled sections were performed as previously described (Parfitt, et al. Report of the ASBMR Histomorphometry Nomenclature Committee. J. Bone Miner. Res. 1987, 2, 595-610). Analysis of bone volume (BV/TV), and trabecular spacing (Tb. Sp.) were performed on the metaphyseal region of tibia sections stained with H and E. Bone formation rate (BFR) per bone surface (BS) and mineral apposition rate (MAR) of trabeculae were calculated within the metaphyseal region of the tibia. For all histomorphometry, three sections per mouse with 4 to 5 mice per group were analyzed. Analysis was performed using Bioquant Osteo software (Bioquant Image Analysis Corporation, Nashville, Tenn.).

[2] = Human plasma BSAP levels, Phase I patients; format: in vivo; conditions: change compared to baseline
Description: All samples were de-identified and the experiments were approved by the University of Utah Institutional Review Board. Plasma samples were submitted to ARUP for clinical testing of CTX. For BSAP, the Human Bone Panel I capture plate with the Human Alkaline Phosphatase detection kit was utilized (Meso Scale Discovery, Rockville, Md.; […]-2) to measure BSAP levels in undiluted plasma samples per the manufacturer's protocol. ASLAN002 is currently in Phase I testing as an anti-cancer agent (NCT01721148). Regardless of cancer diagnosis, and even in the absence of bone metastasis, RON inhibition might affect normal bone turnover, especially in postmenopausal women due to their high rate of bone loss. […] Shown in FIG. 15A is quantification of the percent change in plasma CTX levels (compared to baseline prior to drug treatment) in blood plasma of patients receiving ASLAN002 in the Phase I clinical trial. […] None of the patients analyzed were treated concurrently with anti-osteoporotic agents. […] Shown in FIG. 15B is quantification of the percent change in BSAP levels (compared to baseline) in blood plasma of patients receiving ASLAN002. […] Note that these patients were not selected based on a diagnosis of bone metastasis; rather, markers of bone turnover in patients with various cancer diagnoses who participated in the Phase I trial of ASLAN002 were simply assessed.

c-Src = experiment: Western blot of osteoclast lysates, phospho-Src; format: cell-based, mice; conditions: WT osteoclasts with MSP
Method: (§1) Cells were serum starved (0.5% FBS) for 3 hours prior to lysate collection. Inhibitors were added 1 hour prior to lysis and MSP was added 15 min prior to lysis when indicated. Cells were washed with 1×PBS and harvested in lysis buffer (25 mM Tris-HCl, pH 7.5, 0.42 M NaCl, 1.5 mM MgCl2, 0.5 mM EDTA, 1 mM DTT, 25% sucrose, and 0.1% Triton X-100) plus 100× protease arrest (Bioscience, Bozeman, Mont.) and 100× orthovanadate. Primary antibodies used for immunoblotting include: anti-MSP (Santa Cruz, sc-6090, Dallas, Tex.) at a 1:250 dilution, anti-pan Akt (Cell Signaling, #4691S, Beverly, Mass.) at a 1:1000 dilution, anti-pan Erk (Cell Signaling, #4695, Beverly, Mass.) at a 1:1000 dilution, anti-phospho Akt (Cell Signaling, #9271 L, Beverly, Mass.) at a 1:500 dilution, anti-phospho Erk (Cell Signaling, #4370S, Beverly, Mass.) at a 1:500 dilution, anti-Src (Cell Signaling, #2110, Beverly, Mass.) at a 1:500 dilution, and anti-phospho Src (Y416) (Cell Signaling, #2113, Beverly, Mass.) at a 1:500 dilution. The secondary antibodies used were HRP-conjugated anti-goat IgG (Santa Cruz, Dallas, Tex.) and anti-rabbit IgG (Santa Cruz, Dallas, Tex.). Chemiluminescent signals were detected using Immun-Star HRP (BioRad, Hercules, Calif.).

[3] = Human plasma CTX levels, Phase I patients; format: in vivo
Description: All samples were de-identified and the experiments were approved by the University of Utah Institutional Review Board. Plasma samples were submitted to ARUP for clinical testing of CTX. For BSAP, the Human Bone Panel I capture plate with the Human Alkaline Phosphatase detection kit was utilized (Meso Scale Discovery, Rockville, Md.; […]-2) to measure BSAP levels in undiluted plasma samples per the manufacturer's protocol. ASLAN002 is currently in Phase I testing as an anti-cancer agent (NCT01721148). Regardless of cancer diagnosis, and even in the absence of bone metastasis, RON inhibition might affect normal bone turnover, especially in postmenopausal women due to their high rate of bone loss. Plasma samples from early cohorts of Phase I patients were examined for evidence of bone turnover at baseline and after treatment with ASLAN002, using a standard clinical test to detect cleaved bone-derived collagen in plasma (beta-cross-linked C-telopeptide, or CTX). […] Shown in FIG. 15A is quantification of the percent change in plasma CTX levels (compared to baseline prior to drug treatment) in blood plasma of patients receiving ASLAN002 in the Phase I clinical trial. Most patients received ASLAN002 for 28 days; the exceptions in duration are noted (*15 days and ^84 days). Dark bars represent males, and light bars represent females. […] In this analysis, all subjects except one were >50 years old; women older than 50 were expected to have the greatest amount of physiologic bone turnover due to menopause. None of the patients analyzed were treated concurrently with anti-osteoporotic agents. […] Shown in FIG. 15B is quantification of the percent change in BSAP levels (compared to baseline) in blood plasma of patients receiving ASLAN002. The patients are the same as those shown in FIG. 15A, except those receiving only 15 days of ASLAN002 were not tested for BSAP. Dark bars represent males, and light bars represent females. Note that these patients were not selected based on a diagnosis of bone metastasis; rather, markers of bone turnover in patients with various cancer diagnoses who participated in the Phase I trial of ASLAN002 were simply assessed.

[4] = Ovariectomy-induced bone loss (osteoporosis study); format: in vivo; conditions: WT OVX mice, treatment from 1 day post-ovariectomy, analysis at 28 days
Description: Representative samples were imaged by micro-computed tomography (μCT, Skyscan) with volume rendering snapshots of the tibia. For the osteoporosis study, representative samples were imaged and presented as volume rendering snapshots of the axial view of the tibial metaphysis region. For bone mineral density (BMD) measurements, the right tibia was removed and fixed in 10% NBF overnight. The tibia were then scanned by dual-energy X-ray absorptiometry (DXA) using a Norland pDEXA densitometer (Norland Medical Systems, White Plains, N.Y.). A region including the primary and secondary spongiosa was used to determine the BMD of the tibia. […] For the osteoporosis study, mice were treated beginning on the day after ovary removal. The treatment regimen for OSI-296 was 200 mg/kg every other day by oral gavage. ASLAN002 was administered at 50 mg/kg every other day by oral gavage. Treatment continued until the time of sacrifice at 28 days. […] To investigate the role of the MSP/RON pathway in bone loss due to post-menopausal osteoporosis, ovariectomies were performed in WT and RonTK−/− mice and bone loss was analyzed by dual-energy X-ray absorptiometry (DXA) and bone histomorphometry 28 days later. […] WT OVX mice were treated with ASLAN002 beginning 1 day post-ovariectomy. Mice were sacrificed 28 days post-ovariectomy for analysis.

AKT = experiment: Western blot of osteoclast lysates, phospho-AKT; format: cell-based, mice; conditions: osteoclasts
Method: as §1

RON = RON (Homo sapiens, UniProt Q04912); conditions: from the cited IC50 values; cited from earlier work
Chain of RON (Q04912 25-1400): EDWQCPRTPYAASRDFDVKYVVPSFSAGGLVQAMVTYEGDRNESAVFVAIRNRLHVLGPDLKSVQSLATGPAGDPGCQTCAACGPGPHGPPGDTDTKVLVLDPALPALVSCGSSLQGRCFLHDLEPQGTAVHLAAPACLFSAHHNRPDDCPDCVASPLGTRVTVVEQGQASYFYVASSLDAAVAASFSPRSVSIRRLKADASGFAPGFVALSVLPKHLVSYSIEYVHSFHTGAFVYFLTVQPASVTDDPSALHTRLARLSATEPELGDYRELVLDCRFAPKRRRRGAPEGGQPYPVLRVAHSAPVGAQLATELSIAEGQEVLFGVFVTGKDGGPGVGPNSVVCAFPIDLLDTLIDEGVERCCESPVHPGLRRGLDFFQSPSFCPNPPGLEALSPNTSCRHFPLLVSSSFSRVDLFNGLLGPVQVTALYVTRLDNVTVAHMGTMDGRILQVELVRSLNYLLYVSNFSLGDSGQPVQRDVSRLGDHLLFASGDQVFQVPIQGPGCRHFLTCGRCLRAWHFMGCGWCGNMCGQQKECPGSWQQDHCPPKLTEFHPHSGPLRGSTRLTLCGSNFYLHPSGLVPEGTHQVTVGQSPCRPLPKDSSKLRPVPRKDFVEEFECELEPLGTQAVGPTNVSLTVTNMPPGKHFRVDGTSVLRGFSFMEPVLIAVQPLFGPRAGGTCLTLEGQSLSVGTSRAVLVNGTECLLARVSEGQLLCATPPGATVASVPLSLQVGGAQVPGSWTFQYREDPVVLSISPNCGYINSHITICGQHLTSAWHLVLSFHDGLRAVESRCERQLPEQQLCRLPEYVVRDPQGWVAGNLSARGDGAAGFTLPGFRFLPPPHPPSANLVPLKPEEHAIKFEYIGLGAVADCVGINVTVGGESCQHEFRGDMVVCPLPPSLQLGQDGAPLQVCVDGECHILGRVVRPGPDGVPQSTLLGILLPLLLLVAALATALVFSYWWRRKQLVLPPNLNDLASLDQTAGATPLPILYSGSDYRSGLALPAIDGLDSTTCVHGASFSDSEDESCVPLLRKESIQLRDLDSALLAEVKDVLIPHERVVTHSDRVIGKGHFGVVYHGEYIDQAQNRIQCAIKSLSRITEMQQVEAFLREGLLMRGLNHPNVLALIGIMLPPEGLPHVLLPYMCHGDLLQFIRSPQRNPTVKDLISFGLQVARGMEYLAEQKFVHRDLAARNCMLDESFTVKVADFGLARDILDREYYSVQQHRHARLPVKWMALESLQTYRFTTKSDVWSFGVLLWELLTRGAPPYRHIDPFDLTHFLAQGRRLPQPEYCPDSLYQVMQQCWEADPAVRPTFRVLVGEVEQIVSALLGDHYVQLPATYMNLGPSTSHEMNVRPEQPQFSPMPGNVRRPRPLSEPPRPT

## CCOc1ccn(-c2ccc(F)cc2)c(=O)c1C(=O)Nc1ccc(Oc2ccnc(N)c2Cl)c(F)c1 [ASLAN002]
[1]
  bone formation rate per total bone surface: not significant
  mineral apposition rate: not significant
[2]
  plasma bone-specific alkaline phosphatase (BSAP) levels: increased plasma BSAP
c-Src
  MSP-increased Src phosphorylation: blocked
[3]; 7/10 women
  women showing ≧25% decreases in CTX: 70%
[3]; 11/18 Phase I patients, most 28 days of treatment
  patients exhibiting decreased CTX levels: 61%
[3]; number of men out of all men
  men showing ≧25% decreases in CTX: 0/8
[3]; of the patients with decreased CTX, Mayo clinic response guideline
  patients with decreased CTX that had ≧25% reduction: 64%
[4]
  bone loss after ovary removal: completely prevented bone loss
AKT
  phosphorylated AKT: decrease in phosphorylated AKT
RON
  selectivity between RON and Met: more selective for RON

Reference: patent publication US9907791B2, “Ron inhibitors for use in preventing and treating bone loss” (UNIVERSITY OF UTAH RESEARCH FOUNDATION, priority 2014, dated 2018)
